These results are taken from patent US7973072B2, “Substituted benzo-condensed cyclohexanone derivatives and the use thereof for medicament production” (Gruenenthal GmbH, priority 2005, dated 2011).

Series [1] deals with T1, vanilloid receptor 1 (VR1/TRPV1) of the rat (Rattus norvegicus, UniProt O35433).
T1 construct: host or cells: rat dorsal root ganglia primary cells (Ia) or CHO K1 cells stably transfected with the rat VR1 gene (Ib)
In words: FLIPR Ca2+ functional study on rat vanilloid receptor 1 (rat dorsal root ganglia cells or CHO K1 cells transfected with rat VR1). The conditions noted are these: for activation at 10 µM / inhibition at 10 µM: CHO-K1; for activation at 10 µM / inhibition at 10 µM / VR1 (rat) (% stimulation compared to 10 μM CP) / VR1 (rat) (% inhibition compared to 10 μM CP): test compound 10 μM; for activation at 10 µM / VR1 (rat) (% stimulation compared to 10 μM CP): % activation based on Ca2+ signal after 10 μM capsaicin (CP); for activation at 10 µM: read-out: VR1 (rat) (% stimulation compared to 10 μM CP); for inhibition at 10 µM / VR1 (rat) (% inhibition compared to 10 μM CP): suppression of Ca2+ current after 100 nM capsaicin, relative to maximum inhibition with 10 μM capsaicin (CP); for inhibition at 10 µM: read-out: VR1 (rat) (% inhibition compared to 10 μM CP); for EC50: agonistic action. The class given is cell-based. The method, then: The agonistic or antagonistic action of the substances to be studied on the vanilloid receptor 1 (VR1/TRPV1) of the rat species can be determined with the following assay. In this assay, the Ca^2+ current through the receptor channel is quantified with the aid of a Ca^2+-sensitive dye (Fluo-4 type, Molecular Probes Europe BV, Leiden the Netherlands) in a fluorescent imaging plate reader (FLIPR, Molecular Devices, Sunnyvale, USA).
Complete medium: 50 ml HAMS F12 Nutrient Mixture (Gibco Invitrogen GmbH, Karlsruhe, Germany) with
10% by volume of FCS (fetal calf serum, Gibco Invitrogen GmbH, Karlsruhe, Germany, heat-inactivated);
2 mM L-glutamine (Sigma, Munich, Germany);
1% by weight of AA solution (antibiotic/antimycotic solution, PAA, Pasching, Austria) and 25 ng/ml of NGF medium (2.5 S, Gibco Invitrogen GmbH, Karlsruhe, Germany)
Cell culture plate: poly-D-lysine-coated, black 96-hole plates with a clear bottom (96 well black/clear plate, BD Biosciences, Heidelberg, Germany) are additionally coated with laminin (Gibco Invitrogen GmbH, Karlsruhe, Germany) by diluting laminin to a concentration of 100 μg/ml with PBS (Ca—Mg-free PBS, Gibco Invitrogen GmbH, Karlsruhe, Germany). Aliquots having a concentration of 100 μg/ml of laminin are withdrawn and stored at −20° C. The aliquots are diluted with PBS in a ratio of 1:10 to 10 μg/ml of laminin and in each case 50 μl of the solution are pipetted into a well of the cell culture plate. The cell culture plates are incubated at 37° C. for at least two hours, the supernatant solution is removed by suction and the wells are each washed twice with PBS. The coated cell culture plates are stored with supernatant PBS which is not removed until directly before the application of the cells.
The spinal column is removed from beheaded rats and placed directly into cold HBSS buffer (Hank's buffered saline solution, Gibco Invitrogen GmbH, Karlsruhe, Germany), i.e. placed in an ice bath, which has been admixed with 1% by volume of an AA solution (antibiotic/antimycotic solution, PAA, Pasching, Austria). The spinal column is severed longitudinally and removed from the spinal canal together with fasciae. Subsequently, the dorsal root ganglia (DRGs) are removed and in turn stored in cold HBSS buffer admixed with 1% by volume of an […]. The DRGs freed completely of blood residues and spinal nerves are in each case transferred to 500 μl of cold type 2 collagenase (PAA, Pasching, Austria) and incubated at 37° C. for 35 minutes. After addition of 2.5% by volume of trypsin (PAA, Pasching, Austria), incubation is continued at 37° C. for a further 10 minutes. After complete incubation, the enzyme solution is cautiously pipetted off and the remaining DRGs are each admixed with 500 μl of complete medium.
The DRGs are each suspended repeatedly, drawn through cannulas No. 1, No. 12 and No. 16 by means of a syringe and transferred to 50 ml Falcon tubes which are made up to 15 ml with complete medium. The contents of each Falcon tube are in each case filtered through a 70 μm Falcon filter insert and centrifuged at 1200 revolutions and room temperature for 10 minutes. The resulting pellet is in each case taken up in 250 μl of complete medium and the cell count is determined.
The number of cells in the suspension is adjusted to 3 times 10^5 per ml and in each case 150 μl of this suspension are added to one well of the cell culture plates coated as described above. In the incubator, the plates are left to stand at 37° C., 5% by volume of CO2 and 95% relative air humidity for two to three days.
Subsequently, the cells are laden with 2 μM Fluo-4 and 0.01% by volume of Pluronic F127 (Molecular Probes Europe BV, Leiden, the Netherlands) in HBSS buffer (Hank's buffered saline solution, Gibco Invitrogen GmbH, Karlsruhe, Germany) at 37° C. for 30 min, washed 3× with HBSS buffer and, after a further incubation of 15 minutes, used in the FLIPR assay at room temperature for Ca^2+ measurement. […]

Series [2] addresses T2, human vanilloid receptor 1 (VR1) (Homo sapiens, UniProt Q8NER1).
T2 construct: expressed in transfected cells; host or cells: CHO K1 cells (ECACC), stably transfected
In words: FLIPR Ca2+ functional study on human vanilloid receptor 1 (CHO K1 cells transfected with human VR1). The conditions noted are these: for inhibition at 10 µM: CHO-K1, read-out: VR1 (human) (% inhibition compared to 10 μM CP); for inhibition at 10 µM / VR1 (human) (% inhibition compared to 10 μM CP): test compound 10 μM, suppression of Ca2+ current after 100 nM capsaicin, relative to maximum inhibition with 10 μM capsaicin (CP); for EC50: agonistic action. The class given is cell-based. The method, then:
Chinese hamster ovary cells (CHO K1 cells, European Collection of Cell Cultures (ECACC), England) are transfected stably with the human vanilloid receptor 1 (VR1) gene or the vanilloid receptor 1 (VR1) gene of the rat. For functional studies, these cells are plated out onto poly-D-lysine-coated black 96-well plates with a clear bottom (BD Biosciences, Heidelberg, Germany) in a density of 25 000 cells/well. The cells are incubated overnight at 37° C. and 5% CO2 in culture medium (Ham's Nutrient Mixture F12, Gibco Invitrogen GmbH, Karlsruhe, Germany) with 10% by volume of FBS (fetal bovine serum, Gibco Invitrogen GmbH, Karlsruhe, Germany), and 18 μg/ml of L-proline (Gibco Invitrogen GmbH, Karlsruhe, Germany). The next day, the cells are laden with 2 μM Fluo-4 and 0.01% by volume of Pluronic F127 (Molecular Probes Europe BV, Leiden, The Netherlands) in HBSS buffer (Hank's buffered saline solution, Gibco Invitrogen GmbH, Karlsruhe, Germany) at 37° C. for 30 min. Subsequently, the plates are washed 3 times with HBSS buffer and, after a further incubation of 15 minutes at room temperature, used for Ca^2+ measurement in the FLIPR assay. The Ca^2+-dependent fluorescence is measured before and after addition of substances λex=488 nm, λem=540 nm). The quantification is effected by measuring the highest fluorescence intensity (FC, fluorescence counts) over the time.
The FLIPR protocol consists of 2 substance additions. First, the compounds to be tested (10 μM) are pipetted onto the cells obtained according to Ia or Ib and the Ca^2+ current is compared with the control (capsaicin 10 μM). This gives rise to the result in % activation based on the Ca^2+ signal after addition of 10 μM capsaicin (CP). After incubation for 5 minutes, 100 nM capsaicin is applied and the current of Ca^2+ is likewise determined.
Desensitizing agonists and antagonists lead to a suppression in the Ca^2+ current. % inhibition is calculated compared to the maximum achievable inhibition with 10 μM capsaicin.
Triple determinations (n=3) are performed and they are repeated in at least 3 independent experiments (N=4).

T2 sequence (Q8NER1 whole entry): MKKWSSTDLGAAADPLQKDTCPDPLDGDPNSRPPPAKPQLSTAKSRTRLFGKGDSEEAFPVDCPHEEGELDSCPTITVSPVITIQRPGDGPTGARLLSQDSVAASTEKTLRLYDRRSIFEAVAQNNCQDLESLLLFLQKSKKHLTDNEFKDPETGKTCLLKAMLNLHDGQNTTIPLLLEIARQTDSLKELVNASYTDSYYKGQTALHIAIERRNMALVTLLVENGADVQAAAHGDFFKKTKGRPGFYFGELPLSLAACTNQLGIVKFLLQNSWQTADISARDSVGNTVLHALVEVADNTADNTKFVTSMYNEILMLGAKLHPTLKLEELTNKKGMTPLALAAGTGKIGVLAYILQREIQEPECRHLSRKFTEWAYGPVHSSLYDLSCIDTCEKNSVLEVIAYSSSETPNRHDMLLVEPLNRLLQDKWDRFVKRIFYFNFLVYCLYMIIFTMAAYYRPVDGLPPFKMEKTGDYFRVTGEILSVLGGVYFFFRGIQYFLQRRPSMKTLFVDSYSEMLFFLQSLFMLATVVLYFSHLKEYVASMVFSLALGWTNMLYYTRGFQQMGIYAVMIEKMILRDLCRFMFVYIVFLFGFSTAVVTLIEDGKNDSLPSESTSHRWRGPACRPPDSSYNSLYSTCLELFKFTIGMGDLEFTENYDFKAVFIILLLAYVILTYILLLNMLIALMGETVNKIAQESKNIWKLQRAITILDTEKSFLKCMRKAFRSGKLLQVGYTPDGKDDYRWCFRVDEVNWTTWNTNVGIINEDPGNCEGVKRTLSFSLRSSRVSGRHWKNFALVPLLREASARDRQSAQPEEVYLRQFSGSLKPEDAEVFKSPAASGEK
T1 sequence (O35433 whole entry): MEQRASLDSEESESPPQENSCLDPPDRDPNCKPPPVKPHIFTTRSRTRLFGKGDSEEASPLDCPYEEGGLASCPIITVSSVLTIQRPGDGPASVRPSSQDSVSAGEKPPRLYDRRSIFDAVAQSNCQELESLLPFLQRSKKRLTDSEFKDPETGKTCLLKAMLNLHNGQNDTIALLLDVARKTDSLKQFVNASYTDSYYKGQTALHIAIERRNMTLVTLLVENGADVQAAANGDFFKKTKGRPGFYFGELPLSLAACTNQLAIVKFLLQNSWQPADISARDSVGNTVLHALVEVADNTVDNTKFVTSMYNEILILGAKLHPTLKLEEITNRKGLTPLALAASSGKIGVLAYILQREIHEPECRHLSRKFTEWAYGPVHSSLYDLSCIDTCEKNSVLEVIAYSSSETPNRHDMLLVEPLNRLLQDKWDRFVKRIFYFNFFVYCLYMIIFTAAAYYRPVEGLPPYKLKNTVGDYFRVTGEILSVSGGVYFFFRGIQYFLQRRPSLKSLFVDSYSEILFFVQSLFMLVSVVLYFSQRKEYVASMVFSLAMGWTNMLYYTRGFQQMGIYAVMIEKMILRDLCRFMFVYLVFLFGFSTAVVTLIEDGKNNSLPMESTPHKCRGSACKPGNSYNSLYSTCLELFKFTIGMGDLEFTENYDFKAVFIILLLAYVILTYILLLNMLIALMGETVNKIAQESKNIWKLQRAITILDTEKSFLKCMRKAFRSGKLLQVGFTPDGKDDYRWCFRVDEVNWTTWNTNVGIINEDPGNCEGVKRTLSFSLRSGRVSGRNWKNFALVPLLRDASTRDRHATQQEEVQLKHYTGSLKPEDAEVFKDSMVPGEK

With `Cc1cccc2c1SCC(CO)(COS(=O)(=O)c1ccc(C(C)(C)C)cc1)C2=O` (stereo not shown) [Example Compound 13, 4-tert-butylbenzenesulfonic acid 3-hydroxymethyl-8-methyl-4-oxo-thiochroman-3-ylmethyl ester], in series [1], the activation at 10 µM turned out to be 0.81% and the inhibition (usually the relative decrease from the control value, in per cent) at 10 µM is 40.3%. Besides, the inhibition at 10 µM in series [2] stood at 23.8%.

As for `Cc1cccc2c1C(=O)C(COC(=O)Nc1ccccc1)(COC(=O)Nc1ccccc1)CS2` [Example Compound 40, (5-methyl-4-oxothiochroman-3,3-diyl)bis(methylene)bis(phenylcarbamate)], the activation at 10 µM in series [1] stood at 67%. The inhibition at 10 µM amounted to 106% in series [1] and 96.6% in series [2]. Moreover, the EC50 (as a rule, the midpoint of the concentration-response curve) in series [1] (FLIPR) was 4.1 µM; in series [2] (FLIPR) it was 1.4 µM.

`O=C(Nc1ccccc1)OCC1(COC(=O)Nc2ccccc2)CSc2ccccc2C1=O` [Example Compound 41, 3,3-bis(phenylcarbamoyloxymethyl)thiochroman-4-one]: the activation at 10 µM in series [1] is 38%. Further, the inhibition at 10 µM turned out to be 14% in series [1] and 95% in series [2]. For the same molecule, the results for the EC50 in series [1] (FLIPR) and in series [2] (FLIPR) were 2.4 µM and 0.995 µM, respectively.

Turning to `COc1ccc(NC(=O)OCC2(COC(=O)Nc3ccc(OC)cc3)CSc3ccccc3C2=O)cc1` [Example Compound 42, 3,3-bis(4-methoxyphenylcarbamoyloxymethyl)thiochroman-4-one], the melting point (commonly the temperature, or range, at which the solid turns liquid) is 58 to 63 °C. In series [1], the activation at 10 µM worked out at 37.8% and the inhibition at 10 µM is 41.1%. In series [1] (FLIPR), this molecule yielded an EC50 of 9.95 µM. Besides, in series [2], the inhibition at 10 µM was 73.2%. In series [2] (FLIPR), this molecule gave an EC50 of 3.05 µM.

Turning to `Cc1cccc2c1C(=O)C(COC(=O)Nc1ccccc1)(COC(=O)Nc1ccccc1)CS2(=O)=O` [Example Compound 46, 3,3-bis(phenylcarbamoyloxymethyl)-5-methyl-1,1-dioxo-1λ^6-thiochroman-4-one], the activation at 10 µM in series [1] turned out to be 25%. Moreover, the results for the inhibition at 10 µM in series [1] and in series [2] were 96.8% and 38.5%, respectively. Also, the EC50 in series [1] (FLIPR) stood at 13.8 µM; in series [2] (FLIPR), 6.4 µM.

Turning to `CC(C)(C)c1ccccc1NC(=O)OCC1(COC(=O)Nc2ccccc2C(C)(C)C)CSc2ccccc2C1=O` [Example Compound 51, 3,3-bis(2-tert-butylphenylcarbamoyloxymethyl)thiochroman-4-one], the melting point was in the range of 62 to 68 °C.

On to `O=C(Nc1ccc(C(F)(F)F)cc1)OCC1(COC(=O)Nc2ccc(C(F)(F)F)cc2)CSc2ccccc2C1=O` [Example Compound 52, 3,3-bis(4-trifluoromethylphenylcarbamoyloxymethyl)thiochroman-4-one], for which the melting point lay within 76 to 82 °C.

Turning to `O=C(Nc1cccc(C(F)(F)F)c1)OCC1(COC(=O)Nc2cccc(C(F)(F)F)c2)CSc2ccccc2C1=O` [Example Compound 54, 3,3-bis(3-trifluoromethylphenylcarbamoyloxymethyl)thiochroman-4-one], the melting point was 58 to 63 °C.

In the case of “(6-fluoro-4-oxothiochroman-3,3-diyl)bis(methylene)bis(3-(trifluoromethyl)phenylcarbamate) [Example Compound 30]”, in series [1], the “VR1 (rat) (% stimulation compared to 10 μM CP)” value came out at 94.65% and the “VR1 (rat) (% inhibition compared to 10 μM CP)” value is reported as 44.38%. In addition, in series [2], the “VR1 (human) (% inhibition compared to 10 μM CP)” value stood at 80.26%.

Turning to “(7,8-dichloro-4-oxothiochroman-3,3-diyl)bis(methylene)bis(2-(trifluoromethyl)phenylcarbamate) [Example Compound 31]”, in series [1], the “VR1 (rat) (% stimulation compared to 10 μM CP)” value is given as 22.05% and the “VR1 (rat) (% inhibition compared to 10 μM CP)” value is recorded as 38.68%. The “VR1 (human) (% inhibition compared to 10 μM CP)” value in series [2] was 83.36%.

With “(7,8-dichloro-4-oxothiochroman-3,3-diyl)bis(methylene)bis(3-(trifluoromethyl)phenylcarbamate) [Example Compound 29]”, in series [1], the “VR1 (rat) (% stimulation compared to 10 μM CP)” value was 88.01% and the “VR1 (rat) (% inhibition compared to 10 μM CP)” value was 100.80%. The “VR1 (human) (% inhibition compared to 10 μM CP)” value in series [2] is 91.55%.

In series [1] (FLIPR), “(7-methyl-4-oxothiochroman-3,3-diyl)bis(methylene)bis(phenylcarbamate) [Example Compound 39]” returned an EC50 of 5.86 µM. Further, in series [1], the “VR1 (rat) (% stimulation compared to 10 μM CP)” value is recorded as 109.36% and the “VR1 (rat) (% inhibition compared to 10 μM CP)” value came out at 119.74%. This molecule registered an EC50 in series [2] (FLIPR) of 0.99 µM. Also, the “VR1 (human) (% inhibition compared to 10 μM CP)” value in series [2] is given as 88.33%.

On to “(8-chloro-4-oxothiochroman-3,3-diyl)bis(methylene)bis(2-(trifluoromethyl)phenylcarbamate) [Example Compound 14]”, for which, in series [1], the “VR1 (rat) (% stimulation compared to 10 μM CP)” value is 17.64% and the “VR1 (rat) (% inhibition compared to 10 μM CP)” value was 61.99%. In series [2], the “VR1 (human) (% inhibition compared to 10 μM CP)” value was 69.64%.

As for “(8-chloro-4-oxothiochroman-3,3-diyl)bis(methylene)bis(3-(trifluoromethyl)phenylcarbamate) [Example Compound 20]”, in series [1] (FLIPR, antagonistic action), inhibition was half-maximal at 6.44 µM (IC50). Further, in series [1], the “VR1 (rat) (% stimulation compared to 10 μM CP)” value amounted to 47.96% and the “VR1 (rat) (% inhibition compared to 10 μM CP)” value was found to be 107.78%. Further, in series [2] (FLIPR, antagonistic action), the IC50 (commonly the point on the concentration scale where inhibition reaches its midpoint) worked out at 5.78 µM. The “VR1 (human) (% inhibition compared to 10 μM CP)” value in series [2] is reported as 88.98%.
